# Test results taken from the PolyMetriX glass transition set.
# ± gives the standard deviation of the reports.
row,SMILES,glass transition temperature [°C]
1,*c1ccc2c(c1)C(=O)N(c1cccc(P(=O)(c3cccc(N4C(=O)c5ccc(C(*)(C(F)(F)F)C(F)(F)F)cc5C4=O)c3)c3cc(C(F)(F)F)cc(C(F)(F)F)c3)c1)C2=O (repeat unit),247.00
2,*c1cnc(C2C(c3ccccc3)C(*)C2c2ccccc2)cn1 (repeat unit),150.00
3,*CCN(CCOC(=O)c1ccc(C(=O)O*)cc1)c1ccc(-c2nc3ccc([N+](=O)[O-])cc3o2)cc1 (repeat unit),208.00
4,*Oc1ccc(-c2ccc(OC(*)(Oc3ccccc3)Oc3ccccc3)c(C)c2)cc1C (repeat unit),125.00
5,*CCCCCCOC(=O)OCCOC(=O)OCCCCCCOc1ccc(Oc2ccc(O*)cc2)cc1 (repeat unit),-4.00
6,*CC(*)(C)C(=O)NC(=O)OC(C)COc1c(Br)cc(S(=O)(=O)c2cc(Br)c(OCC(C)O)c(Br)c2)cc1Br (repeat unit),45.00
7,*CC(*)(C)C(=O)OC(F)(F)C(F)(F)C(F)(F)C(F)(F)C(F)(F)C(F)(F)C(F)(F)C(F)(F)F (repeat unit),49.00
8,*c1ccc(C(=O)Oc2c(C)cc(C(c3cccnc3)c3cc(C)c(OC(=O)c4ccc(N5C(=O)CC(Nc6ccc(Cc7ccc(NC8CC(=O)N(*)C8=O)cc7)cc6)C5=O)cc4)c(C)c3)cc2C)cc1 (repeat unit),186.00
9,*C(c1ccc(N(C)C)cc1)C(*)c1ccc([N+](=O)[O-])cc1 (repeat unit),139.00
10,*CCCCCCOc1ccc(CCc2ccc(O*)cc2C)cc1 (repeat unit),17.90
11,*Sc1ccc(C(=O)c2ccc(C(C)(C)c3ccc(C(=O)c4ccc(*)cc4)cc3)cc2)cc1 (repeat unit),175.00
12,*CC(O)COc1ccc(C(C)(C)c2ccc(OCC(O)COc3cccc(NC(=O)CCCCC(=O)Nc4cccc(O*)c4)c3)cc2)cc1 (repeat unit),103.00
13,*Cc1ccc2oc(=O)c(C(=O)Nc3ccc(Oc4ccc(Oc5ccc(NC(=O)c6cc7cc(*)ccc7oc6=O)cc5)cc4)cc3)cc2c1 (repeat unit),290.00
14,*C(=O)Nc1ccc(-c2ccc(NC(=O)c3ccc4c(c3)C(=O)N(c3ccc(Oc5ccc(N6C(=O)c7ccc(*)cc7C6=O)cc5-c5ccccc5)c(-c5ccccc5)c3)C4=O)cc2)cc1 (repeat unit),358.00
15,*c1ccc(Oc2ccc(Oc3ccc(N4C(=O)C5CCC(C6CCC7C(=O)N(*)C(=O)C7C6)CC5C4=O)cc3)cc2)cc1 (repeat unit),238.00
16,*CCCCCCNC(=O)c1ccc(C(=O)N*)c(Oc2ccc(Br)cc2)c1 (repeat unit),116.00
17,*c1ccc2c(c1)C(=O)N(c1cccc(Oc3cccc(Oc4cccc(N5C(=O)c6ccc(C(*)(C(F)(F)F)C(F)(F)F)cc6C5=O)c4)c3)c1)C2=O (repeat unit),206.50 ± 0.7
18,*Cc1c(C)c(C)c(CNC(=O)CCCC(=O)N*)c(C)c1C (repeat unit),192.00
19,*c1ccc(C(=O)Nc2ccc(-c3cc(Br)ccc3NC(=O)c3ccc(S(*)(=O)=O)cc3)cc2)cc1 (repeat unit),288.00
20,*Oc1ccc(NC(=O)/C=C/c2ccc(/C=C/C(=O)Nc3ccc(*)cc3)cc2)cc1 (repeat unit),205.00
21,*/C=C/C1CC(*)C(C(=O)Oc2ccccc2)C1 (repeat unit),72.60
22,*CC(*)n1c2ccccc2c2c3ccccc3ccc21 (repeat unit),291.50
23,*c1cccc(OCCCCCCCCCCOc2cccc(N3C(=O)c4ccc(-c5cccc6c5C(=O)N(*)C6=O)cc4C3=O)c2)c1 (repeat unit),127.00
24,*O[Si](*)(C)CCCOc1ccc(N(c2ccc(C)cc2)c2ccc(-c3ccc(N(c4ccccc4)c4ccc(C)cc4)cc3)cc2)cc1 (repeat unit),102.00
